# Results taken from publication PMC8213153 (PLoS ONE, 2021).
# Read-outs that look alike come from different tables or passages of the source.
# Columns and labels:
# Type in all cases: cell-based
# [1] = system: IL-10; test: IL-10 level of virus-infected Vero cells (ELISA)
# Description: (§1) To enable measurement of IL-6, IL-10 and TNF-α levels, the culture medium of the treated cells was collected in sterile micro-tubes and centrifuged at 3,500 rpm for 20 minutes. The supernatants were carefully collected and diluted with aquadest at a 1:5 volume ratio and vortexed until homogenous. The samples were deposited onto a well-plate, added to ELISA reagents (Bioassay Technology Laboratory, Shanghai, China), and incubated at 37°C for 60 minutes. Reagent substrate solution was then added to the well and incubated for ten minutes at 37°C. The samples were measured for antigen concentration using the optical density (OD) plotted into the standard curves of IL-6, IL-10, and TNF-α.
# [2] = Cytotoxicity (MTT) assay of single and dual combinatory drugs; settings: human
# Description: Each tablet containing drugs was triturated and mixed until homogenous. Approximately 50 mg equivalent mass of drugs were weighed and added to dimethyl sulfoxide in order to solubilize the drugs. The suspension was sonicated in a water bath for 15 minutes before being added to Rosewell Park Memorial Institute (RPMI) media, sonicated again and vortexed to mix it until homogenous. The suspension was then filtered through a polycarbonate membrane with a pore size of 0.45 μm and then a pore size of 0.22 μm under aseptic conditions. The filtrate was mixed with 10% foetal bovine serum and penicillin streptomycin before being vortexed to produce a homogenous mixture to be used as a stock solution. The samples were prepared by diluting the stock solution of each drug with RPMI complete media at an appropriate level of dilution to produce a determined concentration. The dual combinatory drugs mixtures were prepared by mixing appropriate amounts of two drug stock solutions in order to produce a final concentration at the required level. The combinatory drugs were evaluated at both constant and non-constant ratios to evaluate their effects on the cytotoxicity, including; antagonistic, synergistic, or additive. A constant ratio of the mixture was achieved by adding drug solutions at the same ratio, thereby increasing each drug concentration, to produce dose escalation. In contrast, at a non-constant ratio, a fixed determined concentration of drug was added to increased doses of other drug solution in order to produce different levels of drug concentration.
# The cytotoxic concentration (CC50) of drugs was performed by means of MTT assay at the Stem Cell Research and Development Center, Universitas Airlangga using human umbilical cord mesenchymal stem cells which had been obtained from human placenta tissue as approved by the Ethical Committee of Universitas Airlangga Hospital (Certificate number 101/KEH/2019 dated January 10, 2019). The cells were prepared as the primary cell culture and used for the cytotoxicity assay because of their sensitivity to chemicals. Cells were seeded into 96-well microplates at a concentration of 1x10^3 cells/well in 100 μL Alpha Minimum Essentials Medium (α-MEM, Gibco, USA) supplemented with 10% foetal bovine serum, 1% penicillin-streptomycin and 1% amphotericin-B. The plates were then incubated in a CO2 incubator at 37°C with 5% CO2 for 24 hours, at which point, the supernatant was replaced with α-MEM containing drugs at each concentration and incubated for a further 48 hours. Approximately 25μL of 3-(4,5-Dimethylthiazol-2-yl)-2,5-diphenyl tetrazolium-bromide (MTT) reagent at a concentration of 5mg/mL was subsequently added to each well and incubated for four hours at 37°C with 5% CO2. Purple formazan crystals were formed and observed under an inverted microscope. Dimethyl sulfoxide was added to each well with the complete solubilisation of formazan crystals subsequently being observed. The greater the number of formazan crystals formed, the lower the toxicity of the samples which were read for optical density of formazan using a multi reader at a measurement wavelength of 595 nm (Promega Glomax, USA). The CC50 value was analyzed by CompuSyn software (the ComboSyn Inc., accessed from www.combosyn.com).
# In this study, the cytotoxicity assay was evaluated for single and dual combinatory drugs during a period of 48 hours of drug incubation. This assay was intended to evaluate the toxicity of dual combinatory drugs on normal cells. The combination ratios were calculated taking into consideration the usual therapeutic doses and plasma peak concentrations of the drugs. To determine this cytotoxicity, the drugs were mixed at both constant and non-constant ratios.
# [3] = system: IL-6; test: IL-6 level of virus-infected Vero cells (ELISA)
# Description: as §1
# [4] = system: TNF-α; test: TNF-α level of virus-infected Vero cells (ELISA)
# Description: as §1
# [5] = system: SARS-CoV-2 virus; test: microbe, parasite or virus in culture; settings: for IC50: Severe acute respiratory syndrome coronavirus 2, Vero
# [6] = HYDROXYCHLOROQUINE-DOXYCYCLINE series, read-out: Cell viability (%)
# [7] = LOPIRITO-DOXYCYCLINE series, read-out: Cell Viability (%)
# [8] = FAVIPIRAVIR-AZITHROMYCIN series, read-out: Cell Viability (%)
# [9] = HYDROXYCHLOROQUINE-AZITHROMYCIN series, read-out: Cell Viability (%)
# [10] = LOPIRITO-AZITHROMYCIN series, read-out: Viability Cell (%)
smiles,measurement,setting,value
"C[C@H]1c2cccc(O)c2C(=O)C2=C(O)[C@]3(O)C(=O)C(C(N)=O)=C(O)[C@@H](N(C)C)[C@@H]3[C@@H](O)[C@@H]21 [DOXY, Doxycycline]",IL-10,"[1]; 1 μg/mL, 24-h",35.31 ± 0.22 pg/mL
same,IL-10,"[1]; 1 μg/mL, 48, 72h","↗↗ (1 μg/mL; 48, 72h)"
same,IL-10,"[1]; 1 μg/mL, 48-h",219.74 ± 0.08 pg/mL
same,IL-10,"[1]; 1 μg/mL, 72-h",415.82 ± 0.23 pg/mL
same,IL-10,"[1]; 15 μg/mL, 24-h",35.31 ± 1.53 pg/mL
same,IL-10,"[1]; 15 μg/mL, 48-h",219.74 ± 1.41 pg/mL
same,IL-10,"[1]; 15 μg/mL, 72-h",702.97 ± 0.07 pg/mL
same,"viability at 48 h, 0.2 μg/mL",[2]; [6],96.9%
same,"viability at 48 h, 2 μg/mL",[2]; [6],112%
same,"viability at 48 h, 10 μg/mL",[2]; [6],117%
same,"viability at 48 h, 100 μg/mL",[2]; [6],120%
same,"viability at 48 h, 400 μg/mL",[2]; [6],96.5%
same,CC50 at 48 h,"[2]; LOPIRITO-DOXY experiment (Fig 6), 48 hours, CompuSyn, n = 3, read-out: CC50",16500 µg/mL
same,"viability at 48 h, 0.2 μg/mL",[2]; [7],103%
same,"viability at 48 h, 2 μg/mL",[2]; [7],104%
same,"viability at 48 h, 10 μg/mL",[2]; [7],105%
same,"viability at 48 h, 100 μg/mL",[2]; [7],92.8%
same,"viability at 48 h, 400 μg/mL",[2]; [7],91.7%
same,IL-6,"[3]; 1 μg/mL, 24-h",21.06 ± 1.43 ng/L
same,IL-6,"[3]; 1 μg/mL, 48-h",36.93 ± 0.93 ng/L
same,IL-6,"[3]; 1 μg/mL, 72-h",40.56 ± 0.56 ng/L
same,IL-6,"[3]; 1 μg/mL, 24h",↘↘ (1 μg/mL; 24h)
same,IL-6,"[3]; 15 μg/mL, 24-h",13.34 ± 0.86 ng/L
same,IL-6,"[3]; 15 μg/mL, 48-h",37.98 ± 0.94 ng/L
same,IL-6,"[3]; 15 μg/mL, 72-h",43.01 ± 0.05 ng/L
same,TNF-α,"[4]; 1 μg/mL, 24-h",1.98 ± 0.00 pg/mL
same,TNF-α,"[4]; 1 μg/mL, 48-h",408.19 ± 0.77 pg/mL
same,TNF-α,"[4]; 1 μg/mL, 72-h",511.16 ± 3.09 pg/mL
same,TNF-α,"[4]; 1 μg/mL, 24h",↘↘ (1 μg/mL; 24h)
same,TNF-α,"[4]; 15 μg/mL, 24-h",1.98 ± 0.84 pg/mL
same,TNF-α,"[4]; 15 μg/mL, 48-h",408.19 ± 0.84 pg/mL
same,TNF-α,"[4]; 15 μg/mL, 72-h",529.12 ± 0.46 pg/mL
same,Virus Titer,"[5]; 1 μg/mL, 24-h",38.42 viral protein fg/mL
same,Virus Titer,"[5]; 15 μg/mL, 24-h",36.90 viral protein fg/mL
same,Virus Titer,"[5]; 15 μg/mL, 48-h",37.85 viral protein fg/mL
same,Virus Titer,"[5]; 15 μg/mL, 72-h",39.15 viral protein fg/mL
same,Drug concentration that produced an undetected virus copy number,"[5]; MoI 0.04, at 24, 48, and/or 72 hours' incubation",37.5 µg/mL
same,IC50,"[5]; 24h, MoI 0.04",18 µg/mL
same,IC50,"[5]; 48h, MoI 0.04",4.7 µg/mL
same,IC50,"[5]; 72h, MoI 0.04",0.4 µg/mL
same,Results (virus detection),"[5]; at the drug concentration of the same line of Table 4, MoI 0.04","24, 48, 72h virus undetected"
"CC[C@H]1OC(=O)[C@H](C)[C@@H](O[C@H]2C[C@@](C)(OC)[C@@H](O)[C@H](C)O2)[C@H](C)[C@@H](O[C@@H]2O[C@H](C)C[C@H](N(C)C)[C@H]2O)[C@](C)(O)C[C@@H](C)CN(C)[C@H](C)[C@@H](O)[C@]1(C)O [AZI, Azithromycin]",IL-10,"[1]; 15 μg/mL, 24-h",32.78 ± 1.18 pg/mL
same,IL-10,"[1]; 15 μg/mL, 48-h",152.34 ± 1.72 pg/mL
same,IL-10,"[1]; 15 μg/mL, 72-h",609.92 ± 1.48 pg/mL
same,IL-10,"[1]; 15 μg/mL, 24h",↗↗ (15 μg/mL; 24h)
same,IL-10,"[1]; 62.5 μg/mL, 24-h",53.50 ± 1.85 pg/mL
same,IL-10,"[1]; 62.5 μg/mL, 48-h",91.92 ± 1.45 pg/mL
same,IL-10 levels (in words),[1]; Table 5,increased
same,"viability at 48 h, 0.2 μg/mL",[2]; [8],115%
same,"viability at 48 h, 2 μg/mL",[2]; [8],107%
same,"viability at 48 h, 10 μg/mL",[2]; [8],110%
same,"viability at 48 h, 100 μg/mL",[2]; [8],139%
same,"viability at 48 h, 400 μg/mL",[2]; [8],90.9%
same,"viability at 48 h, 2 μg/mL",[2]; [9],94.2%
same,"viability at 48 h, 10 μg/mL",[2]; [9],104%
same,"viability at 48 h, 100 μg/mL",[2]; [9],110%
same,"viability at 48 h, 400 μg/mL",[2]; [9],68.9%
same,"viability at 48 h, 0.2 μg/mL",[2]; [10],84.7%
same,"viability at 48 h, 2 μg/mL",[2]; [10],81.2%
same,"viability at 48 h, 10 μg/mL",[2]; [10],84.6%
same,"viability at 48 h, 100 μg/mL",[2]; [10],89.5%
same,"viability at 48 h, 400 μg/mL",[2]; [10],81.2%
same,IL-6,"[3]; 15 μg/mL, 24-h",14.55 ± 2.22 ng/L
same,IL-6,"[3]; 15 μg/mL, 72-h",565.92 ± 0.00 ng/L
same,IL-6,"[3]; 62.5 μg/mL, 24-h",15.92 ± 0.57 ng/L
same,IL-6,"[3]; 62.5 μg/mL, 48-h",33.47 ± 3.98 ng/L
same,IL-6,"[3]; 62.5 μg/mL, 72-h",529.11 ± 0.95 ng/L
same,IL-6 (in words),[3]; Table 5,reduced
same,TNF-α,"[4]; 15 μg/mL, 24-h",6.994 ± 1.32 pg/mL
same,TNF-α,"[4]; 15 μg/mL, 48-h",478 ± 1.50 pg/mL
same,TNF-α,"[4]; 15 μg/mL, 72-h",777.34 ± 1.67 pg/mL
same,TNF-α,"[4]; 62.5 μg/mL, 24-h",86.00 ± 2.84 pg/mL
same,TNF-α,"[4]; 62.5 μg/mL, 48-h",381.30 ± 1.28 pg/mL
same,TNF-α,"[4]; 62.5 μg/mL, 72-h",641.33 ± 0.00 pg/mL
same,TNF-α,"[4]; 24, 48, and 72 hours, cell without concentration",No effects
same,TNF-α levels (in words),[4]; Table 5,no effects
same,Virus Titer,"[5]; 15 μg/mL, 24-h",38.18 viral protein fg/mL
same,Virus Titer,"[5]; 62.5 μg/mL, 48-h",38.78 viral protein fg/mL
same,IC50,"[5]; 24h, MoI 0.04",51.9 µg/mL
same,IC50,"[5]; 48h, MoI 0.04",19.6 µg/mL
same,IC50,"[5]; 72h, MoI 0.04",< 10 µg/mL
